The record followed here is patent US9540337B2, “Gamma-glutamyl transpeptidase inhibitors and methods of use” (The Board of Regents of the University of Oklahoma, priority 2012, dated 2017).

Like-named read-outs stand apart in the source and are kept apart here.

One assay deals with T1, hGGT (Homo sapiens, UniProt P19440).
T1 construct: lacking the transmembrane domain; made in house; host or cells: Pichia pastoris
Put plainly: L-Glutamate Release Assay (Hydrolysis of GSH). Type of assay: biochemical. The following applies: GSH hydrolysis, read-out: GSH Kii. As for the experimental part:
L-Glutamate Release Assay (Hydrolysis of GSH): This assay measures the production of glutamate from the hydrolysis of GSH by GGT enzyme and has been described in detail previously. The concentration of the substrate, GSH, was varied from 5 μM to 20 μM. The concentration of the inhibitors, OU749 and its analogs, were varied from 15.6 μM to 250 μM. The reaction was initiated with the addition of 10 mU hGGT. […] All compounds were also evaluated as inhibitors of glutamate dehydrogenase, the enzyme in the second half of the L-glutamate release assay. None of the compounds in this study inhibited glutamate dehydrogenase.

The target of assay [1] is T2, Human GGT1 (hGGT) (Homo sapiens, UniProt P19440). Kind of assay: L-GpNA Transpeptidation Assay with GlyGly as acceptor. The format is biochemical. Set-up: lacking the transmembrane domain; made in house; host or cells: Pichia pastoris. As for the experimental part: Transpeptidation Reaction: The same assay buffer was used for both the hydrolysis reaction and the transpeptidation reaction. The transpeptidation reaction included 40 mM glycylglycine (glygly, Sigma, St. Louis, Mo.) as the acceptor. […] The concentration of L-GpNA was 3 mM for experiments in which the concentration of glygly was varied. To initiate the transpeptidation reaction, 4 mU GGT were added.
T2 sequence (P19440 381-569 limits assumed): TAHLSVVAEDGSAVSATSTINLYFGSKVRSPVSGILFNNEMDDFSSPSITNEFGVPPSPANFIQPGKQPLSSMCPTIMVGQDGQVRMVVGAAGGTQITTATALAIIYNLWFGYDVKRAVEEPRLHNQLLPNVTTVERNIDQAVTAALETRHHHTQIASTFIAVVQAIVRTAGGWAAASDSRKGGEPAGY
T2 sequence (P19440 27-380 limits assumed): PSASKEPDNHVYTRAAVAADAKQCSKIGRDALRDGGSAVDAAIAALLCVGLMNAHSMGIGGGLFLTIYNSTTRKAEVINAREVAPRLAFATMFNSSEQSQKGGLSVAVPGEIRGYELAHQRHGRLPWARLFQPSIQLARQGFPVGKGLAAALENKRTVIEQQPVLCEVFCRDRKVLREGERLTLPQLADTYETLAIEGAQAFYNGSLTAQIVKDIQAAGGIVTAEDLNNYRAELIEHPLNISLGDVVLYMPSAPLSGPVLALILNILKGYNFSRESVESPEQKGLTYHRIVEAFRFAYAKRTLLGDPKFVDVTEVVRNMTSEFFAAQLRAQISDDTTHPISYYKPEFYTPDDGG
1. […] 3 and 4. […] 5 (25).
L-GpNA Transpeptidation Assay: The assay has been described previously. […] The concentration of L-GpNA was 3 mM for experiments in which the concentration of GlyGly was varied. To initiate the transpeptidation reaction, 4 mU GGT were added.

For assay [2], the target named is T2, Human GGT1 (hGGT). Kind of assay: D-GpNA Hydrolysis Assay (release of pNA, 405 nm, pH 7.4). The note with it: for fold less effective than OU749 in inhibiting hydrolysis of D-GpNA: relative to OU749; for Vo (maximum velocity at zero activator) / V∞ (maximum rate at infinite activator): Hydrolysis D-GpNA, Table 3; for maximal fold induction: human. Here is the method:
Enzyme Isolation: Human GGT1 (P19440), lacking the transmembrane domain, was expressed in Pichia pastoris and isolated as previously described (14). […] One unit of GGT activity was defined as the amount of enzyme that released 1 μmol of paranitroaniline/min at 37° C. at pH 7.4 in the transpeptidation reaction.
The reaction was initiated with the addition of 19 mU GGT. The reaction was incubated at 37° C. and monitored continuously at 405 nm by a Bio-Rad model 680 microplate reader with Microplate Manager 5.2 software (Bio-Rad, Hercules, Calif.).
Data Analysis: Samples in each experiment were run in triplicate. Each inhibitor was evaluated in two or more independent experiments. Double reciprocal plots were generated to assess data quality and determine the correct rate equation for data fitting. Data were fitted using the proper rate equation and the Marquardt-Levenberg algorithm supplied with the Enzfitter program (BIOSOFT, Cambridge, UK). Kinetic parameters with standard errors were estimated using a simple weighting method.
Data adhering to Michaelis-Menten Kinetics were fitted to eq. 1. Data for initial rate patterns with D-, L-GpNA varied at different fixed levels of glygly were fitted to eq. […] Data for competitive and uncompetitive inhibition were fitted to eqs. 3 and 4. Data for the dependence of Vmax and Vmax/KD-GpNA on the concentration of activator were fitted using eq. 5 (25).
In eqs 1-6, Vmax are the initial and maximum rates, respectively, Ka and Kb are Michaelis constants for substrates A and B, respectively, and Kis and Kii are slope and intercept inhibition constants. In eq. 5, a is the value of Vmax or Vmax/KD-GpNA at zero activator/inhibitor, KID is the activation or inhibition constant, and KIN is a constant that causes the parameter to go to a constant value at infinite concentrations of X, the activator/inhibitor. The product a(KID/KIN) is the value of Vmax or Vmax/KD-GpNA at infinite activator/inhibitor (25). Data for noncompetitive inhibition were fitted to eq. 6. Data for the dependence of Vmax and Vmax/KD-GpNA on the concentration of activator were fitted using […].
Enzyme Isolation: hGGT (P19440), lacking the transmembrane domain, was expressed in Pichia pastoris and isolated as previously described. […] One unit of GGT activity was defined as the amount of enzyme that released 1 μmol of paranitroaniline/min at 37° C. at pH 7.4 in the transpeptidation reaction with L-GpNA.
D-GpNA Hydrolysis Assay: The assay was carried out as previously described. […] The reaction was initiated with the addition of 19 mU GGT as determined by the L-GpNA transpeptidation assay. The reaction was incubated at 37° C. and monitored continuously at 405 nm.

[3] abbreviates: GlyGly varied, 3 mM L-GpNA, Table 2, read-out: Transpeptidation GlyGly Kis.
Setting [4] is: L-GpNA varied, 40 mM GlyGly, Table 2, read-out: Transpeptidation L-GpNA Kii.
Where [5] appears, read: Table 3, read-out: Transpeptidation GlyGly Kis.
Setting [6] is: Table 3, read-out: Transpeptidation L-GpNA Kii.
Setting [7] is: pH 7.4, read-out: Fold Activation.
[8] abbreviates: read-out: activation of the Vmax for hydrolysis (V∞/Vo).

T1 sequence (P19440 381-569 limits assumed): as the sequence (P19440 381-569 limits assumed) above
T1 sequence (P19440 27-380 limits assumed): as the sequence (P19440 27-380 limits assumed) above

`Nc1ccc(S(=O)(=O)Nc2nnc(Cc3ccccc3)s2)cc1` [Compound 25]: the Ki on hGGT (Table 5) came out at 242 ± 6 µM; on Human GGT1 (hGGT) [1] (Table 5, read-out: GlyGly with L-GpNA Kis), 42 ± 2 µM; on Human GGT1 (hGGT) [1] (Table 5, read-out: L-GpNA with GlyGly Kii), 74 ± 4 µM; on Human GGT1 (hGGT) [2] it was 58 ± 6 µM.

In the case of `COc1ccc(Cc2nnc(NS(=O)(=O)c3ccc(Cl)c(Cl)c3)s2)cc1` [Compound 8], the Ki on hGGT (Table 6) was over 250 µM; on Human GGT1 (hGGT) [1] (setting [3]), 10.8 ± 0.8 µM; on Human GGT1 (hGGT) [1] (setting [4]) it was 18.2 ± 0.7 µM; at Human GGT1 (hGGT) [2], 3160 ± 90 µM.

Turning to `COc1ccc(Cc2nnc(NS(=O)(=O)c3ccccc3)s2)cc1` [Compound 1], the Ki on hGGT (Table 4) turned out to be 376 ± 50 µM; on Human GGT1 (hGGT) [1] (setting [3]), 54.1 ± 3.9 µM.

With `NS(=O)(=O)c1ccccc1.[Na]` [SBS, Sodium benzenesulfonamide, reference compound], the Ki turned out to be 28800 ± 1600 µM on Human GGT1 (hGGT) [1] (SBS, read-out: Kii, transpeptidation, vs L-GpNA) and 2280 ± 70 µM at Human GGT1 (hGGT) [1] (SBS, read-out: Kis, transpeptidation, vs GlyGly). Also, on Human GGT1 (hGGT) [2], the “fold less effective than OU749 in inhibiting hydrolysis of D-GpNA” value is given as “more than 2.000 fold”.

As to `O=[N+]([O-])c1ccc(S(=O)(=O)Nc2nnc(Cc3ccccc3)s2)cc1` [Compound 13], the Ki came out at 59.6 ± 3.7 µM on Human GGT1 (hGGT) [1] (setting [5]) and 111 ± 5.5 µM on Human GGT1 (hGGT) [1] (setting [6]). The “fold change in L-GpNA Kii (transpeptidation) relative to Compound 16” value on Human GGT1 (hGGT) [1] (weaker than Compound 16) is given as about 2 fold. For the same compound, the “Vo (maximum velocity at zero activator)” value at Human GGT1 (hGGT) [2] stood at 1.59 ± 0.06 mM/min/nM. For the same compound, the “V∞ (maximum rate at infinite activator)” value at Human GGT1 (hGGT) [2] stood at 9.09 ± 0.55 mM/min/nM. Also, the maximal fold induction at Human GGT1 (hGGT) [2] (setting [7]) is 5.72 ± 0.32; at Human GGT1 (hGGT) [2] (setting [8]) it was 3 to 6.

Regarding `COc1ccc(Cc2nnc(NS(=O)(=O)c3ccc(NO)cc3)s2)cc1` [Compound 5], the results for the Ki at Human GGT1 (hGGT) [1] (setting [3]), at Human GGT1 (hGGT) [1] (setting [4]) and at Human GGT1 (hGGT) [2] were 25.7 ± 1.3 µM, 64.4 ± 5.1 µM and 149 ± 13.6 µM, respectively. Further, the “fold less effective than OU749 in inhibiting hydrolysis of D-GpNA” value at Human GGT1 (hGGT) [2] was 2-5 fold.

Consider `Cc1ccc(Cc2nnc(NS(=O)(=O)c3ccc([N+](=O)[O-])cc3)s2)cc1` [Compound 17], for which the Ki at Human GGT1 (hGGT) [1] (setting [5]) was found to be 56.9 ± 8.3 µM; on Human GGT1 (hGGT) [1] (setting [6]), 113 ± 5.2 µM. Besides, on Human GGT1 (hGGT) [2], the “Vo (maximum velocity at zero activator)” value is on record as 2.62 ± 0.79 mM/min/nM. Further, the “V∞ (maximum rate at infinite activator)” value at Human GGT1 (hGGT) [2] stood at 11.25 ± 4.27 mM/min/nM. The maximal fold induction at Human GGT1 (hGGT) [2] (setting [7]) is 4.29 ± 2.2; on Human GGT1 (hGGT) [2] (setting [8]), 3 to 6.

Consider `O=[N+]([O-])c1ccc(S(=O)(=O)Nc2nnc(Cc3ccc(Cl)cc3)s2)cc1` [Compound 16], for which the Ki was 44.4 ± 3.4 µM at Human GGT1 (hGGT) [1] (setting [5]); 61.9 µM on Human GGT1 (hGGT) [1] (setting [6]); 62 ± 2 µM on Human GGT1 (hGGT) [1] (Table 7, read-out: L-GpNA with GlyGly Kii). In addition, the “Vo (maximum velocity at zero activator)” value at Human GGT1 (hGGT) [2] was determined as 1.71 ± 0.09 mM/min/nM. Also, the “V∞ (maximum rate at infinite activator)” value at Human GGT1 (hGGT) [2] was 7.70 ± 0.46 mM/min/nM. Further, the maximal fold induction on Human GGT1 (hGGT) [2] (setting [7]) is 4.5 ± 0.63; on Human GGT1 (hGGT) [2] (setting [8]), 3 to 6.

Regarding `O=[N+]([O-])c1ccc(S(=O)(=O)Nc2nnc(Cc3ccc(F)cc3)s2)cc1` [Compound 19], on Human GGT1 (hGGT) [1] (setting [5]), the Ki is 31.8 ± 0.7 µM. At Human GGT1 (hGGT) [2], the “Vo (maximum velocity at zero activator)” value was determined as 1.53 ± 0.09 mM/min/nM and the “V∞ (maximum rate at infinite activator)” value is 5.39 ± 0.28 mM/min/nM. In addition, the maximal fold induction at Human GGT1 (hGGT) [2] (setting [7]) came to 3.52 ± 0.6. Moreover, on Human GGT1 (hGGT) [2] (setting [8]), the maximal fold induction was in the range of 3 to 6.

Regarding `O=[N+]([O-])c1ccc(Cc2nnc(NS(=O)(=O)c3ccc([N+](=O)[O-])cc3)s2)cc1` [Compound 14], the Ki on Human GGT1 (hGGT) [1] (setting [5]) turned out to be 81.2 ± 8.8 µM; on Human GGT1 (hGGT) [1] (setting [6]), 132 ± 5.5 µM. The “Vo (maximum velocity at zero activator)” value on Human GGT1 (hGGT) [2] is on record as 1.27 ± 0.01 mM/min/nM. In addition, the “V∞ (maximum rate at infinite activator)” value on Human GGT1 (hGGT) [2] amounted to 5.08 ± 0.41 mM/min/nM. Besides, the maximal fold induction on Human GGT1 (hGGT) [2] (setting [7]) was 4 ± 0.11; at Human GGT1 (hGGT) [2] (setting [8]) it was 3 to 6.
